This is an account of results in patent US20220387345A1, “ANTI-CANCER COMPOUNDS ACTING AS NON-PGP SUBSTRATE” (ASCENTAWITS PHARMACEUTICALS, LTD., priority 2019, published 2022).

One series deals with H460. Nature of the series: In vitro proliferation of NSCLC human tumor line H460, without or with specific AKR1C3 inhibitor. Format: cell-based. The conditions noted are these: H460 cells. The method, then: The cytotoxicity analysis of the human tumor cell lines in vitro was used.
IC50 (half maximal inhibitory concentration) values were in nanomoles and were obtained by the following. Cells were exposed in the compounds with different concentration for 2 hours. The compounds were washed off, and fresh medium was added into plates. A growth rate and a cell-survival rate were obtained by cell staining and compared with a control group treated with the medium only.
The compound was dissolved in 100% DMSO at 200 times of the desired final test concentration. When the drug was added, the compound was further diluted at 4 times of the desired final test concentration by the complete medium. 50 μL aliquots of the compound with specific concentration were added to the microwells contained 150 μL of medium, and then the final drug concentration was obtained. […] After the incubation was finished, the Alamar Blue was used to analyze and quantify the alive cells.
Before 2 h of the compound was prepared, the compound with the inhibitor was added to the cell culture. The inhibitor was […]

The target in another series is P-glycoprotein (P-GP) (Homo sapiens, UniProt P08183). Nature of the series: Evaluation as P-Gp substrate: penetration test in MDCKII-MDR1 cells with Verapamil as inhibitor. The conditions noted are these: dog, MDCK-MDR1. How it is done: The preparation of the […] for the penetration test: • (1) MDCKII-MDR1 cells were cultured in the cell culture bottle. The conditions of the incubator were 37° C., 5% of CO2, and 95% of the relative humidity. When the cell growth confluence was up to 70-90%, the cells were inoculated to the transwell. • (2) Before the cell inoculation, 50 μL of the culture medium was respectively added to every well of the upper compartment of the transwell, and […] of the culture medium was added to the lower compartment. The transwell was incubated in the incubator under 37° C. and 5% CO2. […] The cell suspension was transferred to the upper compartment of the 96-well transwell, wherein each upper compartment contains 50 μL of the cell suspension. The final inoculum density was 5.45×10^5 cells/cm^2. • (5) The culture medium was replaced after inoculating for 48 h. After culturing for 4-8 days, the medium was changed every other day. • (6) The process of replacing the culture medium was as the follow. The upper compartment and the lower compartment were separated. The medium in the lower compartment was discarded, and then the medium in the upper compartment was discarded. Finally, 75 μL of fresh medium was added to each upper compartment and […] of fresh medium was added to the lower compartment.
P-glycoprotein (P-GP), sequence (P08183 whole entry): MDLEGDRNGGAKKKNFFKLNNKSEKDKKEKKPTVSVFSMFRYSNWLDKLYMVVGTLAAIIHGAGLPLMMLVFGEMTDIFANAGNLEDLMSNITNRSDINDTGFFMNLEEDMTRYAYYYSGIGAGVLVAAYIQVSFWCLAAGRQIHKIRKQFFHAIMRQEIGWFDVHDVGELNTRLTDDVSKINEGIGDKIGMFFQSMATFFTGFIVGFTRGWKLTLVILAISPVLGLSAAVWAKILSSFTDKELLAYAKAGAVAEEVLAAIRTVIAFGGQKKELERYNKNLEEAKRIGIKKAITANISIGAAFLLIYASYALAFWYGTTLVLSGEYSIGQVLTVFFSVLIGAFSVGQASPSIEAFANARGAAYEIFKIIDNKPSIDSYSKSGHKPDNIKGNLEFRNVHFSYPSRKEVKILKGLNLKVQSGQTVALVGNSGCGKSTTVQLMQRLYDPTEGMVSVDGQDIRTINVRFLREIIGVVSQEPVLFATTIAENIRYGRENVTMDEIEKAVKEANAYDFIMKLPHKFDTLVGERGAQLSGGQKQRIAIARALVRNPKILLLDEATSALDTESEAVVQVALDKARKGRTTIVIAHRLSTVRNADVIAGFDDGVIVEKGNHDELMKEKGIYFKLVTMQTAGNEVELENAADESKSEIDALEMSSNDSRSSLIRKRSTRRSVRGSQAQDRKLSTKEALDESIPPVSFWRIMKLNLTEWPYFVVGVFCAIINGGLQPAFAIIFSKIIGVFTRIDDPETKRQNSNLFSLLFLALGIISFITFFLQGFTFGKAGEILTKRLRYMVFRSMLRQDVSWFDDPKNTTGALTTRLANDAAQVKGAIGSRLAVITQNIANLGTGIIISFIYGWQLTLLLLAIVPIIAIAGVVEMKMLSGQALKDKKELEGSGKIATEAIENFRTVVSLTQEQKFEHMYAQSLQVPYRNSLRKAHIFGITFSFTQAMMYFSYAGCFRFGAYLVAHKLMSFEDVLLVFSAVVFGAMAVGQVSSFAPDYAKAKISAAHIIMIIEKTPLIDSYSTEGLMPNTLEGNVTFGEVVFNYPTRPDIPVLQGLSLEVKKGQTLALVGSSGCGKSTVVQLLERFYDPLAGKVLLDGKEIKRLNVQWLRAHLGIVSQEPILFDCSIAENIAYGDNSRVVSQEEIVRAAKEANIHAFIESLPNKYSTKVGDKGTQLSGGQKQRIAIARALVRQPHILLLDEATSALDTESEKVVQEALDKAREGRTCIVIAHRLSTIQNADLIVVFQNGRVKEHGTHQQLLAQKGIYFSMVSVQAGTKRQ
Evaluation of the Cell Monolayer Integrity • (1) The MDCKII-MER1 cells should be totally confluent and complete the differentiation after culturing for 4-8 days. The MDCKII-MER1 cells can be used for the penetration test at this time. • (2) Millipore was used to measure the resistance of the cell monolayer, and the resistance of every well was recorded. • (3) After the measuring, the transwell was put back to the incubator. • (4) The calculation of the resistance: measured resistance (ohms)×area of the membrane=TEER value (ohm-cm^2). If TERR value was <42 ohm-cm^2, the well would not be used to the penetration test.
Penetration Test of the Drug • (1) The transwell of the MDCKII-MER1 cells was taken out from the incubator. The cell monolayer was rinsed two times by the buffer solution and incubated at 37° C. for 30 min. • (2) The transport rate of the compound from the top to the bottom was tested. […] 200 μL of the acetonitrile containing the internal standard (100 nM Alprazolam, 200 nM Labetalol, 200 nM caffeine and 2 μM Ketoprofen) was added to each sample tube. After the sample tubes were vortexed for 10 min, the sample tubes were centrifuged at 3220 g for 30 min. 100 μL of the supernatant was taken to be diluted with the same volume of the water, and the LC-MS/MS analysis was executed. Each sample was adopted to the three parallel incubation. • (8) After the cell monolayer was incubated for 2 h, the integrity of the cell monolayer was evaluated by the migration assay using the fluorescence yellow, the fluorescence yellow storage solution was diluted by the buffer solution, and the final concentration was 100 μM/L. 100 μL of the fluorescence yellow solution was added to each well of the upper compartment, and 300 μL of the buffer was added to each well of the lower compartment. After the transwell was incubated at 37° C. for 30 min, 80 µL of the solution from each well of the upper compartment and the lower compartment was respectively transferred to a new 96-well plate. ELISA (Enzyme-linked Immunosorbent Assay) reader was used to perform the fluorimetry with the excitation wavelength of 480 nm and the emission wavelength of 530 nm.
The peak area was calculated by the result of the ion chromatography. The permeability coefficient (Papp, unit: cm/s×10^−6) of the compound was calculated by the formula: […]

Where [1] appears, read: in the presence of specific AKR1C3 inhibitor (TH3021, 3 μmol concentration), read-out: Inhibitory effect of the proliferation of the cancer cells IC50 of +TH3021.
[2] abbreviates: Homo sapiens, NCI-H460, 2 h exposure, washed, further 70 h, Alamar Blue, read-out: Inhibitory effect of the proliferation of the cancer cells IC50.

The structures appear in SMILES notation. Where two headings read alike, the source gives them in different places.

A word on the efflux ratio: it is the permeability from basolateral to apical divided by that in the opposite direction, in the common usage. `O=[N+]([O-])c1ccc(COP(=O)(N2CC2)N2CC2)cc1Oc1ccc(-c2ccc(F)cc2)c(F)c1` [Compound 1]: the IC50 came to 0.04 µM with H460 (setting [1]) and 0.00087 µM with H460 (setting [2]). Further, the efflux ratio at 2 h at P-glycoprotein (P-GP) is 1.
With `O=[N+]([O-])c1ccc(COP(=O)(N2CC2)N2CC2)cc1Oc1ccc(-c2ccc(F)cc2)cc1` [Compound 2], the results for the IC50 in the series on H460 (setting [1]) and with H460 (setting [2]) were 0.105 µM and 0.00189 µM, respectively. Also, the efflux ratio at 2 h at P-glycoprotein (P-GP) came to 1.53.
The matching figures for `O=[N+]([O-])c1cc(F)c(COP(=O)(N2CC2)N2CC2)cc1Oc1ccc(-c2ccc(F)cc2)cc1` [Compound 3]: 0.0478 µM, 0.00184 µM and 1.2.
As to `O=[N+]([O-])c1ccc(COP(=O)(N2CC2)N2CC2)cc1Oc1ccc(-c2ccc(F)cc2F)c(F)c1` [Compound 4], the results for the IC50 with H460 (setting [1]) and in the series on H460 (setting [2]) were 0.0163 µM and 0.00067 µM, respectively. Besides, on P-glycoprotein (P-GP), the efflux ratio at 2 h came out at 0.87.
As for `Cc1cc(F)ccc1-c1ccc(Oc2cc(COP(=O)(N3CC3)N3CC3)ccc2[N+](=O)[O-])cc1F` [Compound 5], the IC50 with H460 (setting [1]) came to 0.00504 µM; in the series on H460 (setting [2]), 0.00059 µM. In addition, at P-glycoprotein (P-GP), the efflux ratio at 2 h came to 1.69.
As to `O=[N+]([O-])c1ccc(COP(=O)(N2CC2)N2CC2)cc1Oc1ccc(C(F)(F)F)nc1` [Compound 6], the IC50 in the series with H460 (setting [1]) was found to be 0.0382 µM; with H460 (setting [2]), 0.00046 µM.
In the case of `O=[N+]([O-])c1ccc(COP(=O)(N2CC2)N2CC2)cc1Oc1ccc(-c2ccc(F)cc2)nc1` [Compound 7], the IC50 in the series with H460 (setting [1]) came to 0.0197 µM; in the series on H460 (setting [2]), 0.00071 µM. Besides, the efflux ratio at 2 h at P-glycoprotein (P-GP) was 1.54.
On to `O=[N+]([O-])c1ccc(COP(=O)(N2CC2)N2CC2)cc1Oc1ccc(-c2ccc(F)cc2F)nc1` [Compound 8], for which the IC50 with H460 (setting [1]) is 0.0268 µM; with H460 (setting [2]) it was < 0.0015 µM.
On to `O=[N+]([O-])c1ccc(COP(=O)(N2CC2)N2CC2)cc1Oc1ccc(Cl)nc1` [Compound 9], for which the IC50 in the series on H460 (setting [1]) was 0.0561 µM; in the series with H460 (setting [2]), < 0.0015 µM.
For the compound `O=[N+]([O-])c1ccc(COP(=O)(N2CC2)N2CC2)cc1Oc1ccc(-c2ccc(F)cn2)cc1` [Compound 10], the IC50 was 0.0296 µM in the series on H460 (setting [1]) and 0.00115 µM with H460 (setting [2]). Also, at P-glycoprotein (P-GP), the efflux ratio at 2 h was found to be 1.43.
`O=[N+]([O-])c1ccc(COP(=O)(N2CC2)N2CC2)cc1Oc1ccc(-c2ccc(F)cn2)c(F)c1` [Compound 11]: the IC50 in the series with H460 (setting [1]) was found to be 0.0922 µM; with H460 (setting [2]), 0.000211 µM.
With `O=[N+]([O-])c1ccc(COP(=O)(N2CC2)N2CC2)cc1Oc1ccc(-c2ccc(F)cc2F)nc1` [Compound 12], the IC50 in the series with H460 (2 h exposure, washed, further 70 h, Alamar Blue, read-out: Inhibitory effect of the proliferation of the cancer cells IC50) was < 0.0015 µM; with H460 (setting [1]), 0.0114 µM.
Regarding `O=[N+]([O-])c1ccc(C(OP(=O)(N2CC2)N2CC2)C(F)(F)F)cc1Oc1cccc(-c2ccc(F)cc2)c1` (stereo not shown) [Compound 13], the IC50 with H460 (setting [1]) was 1.89 µM; in the series on H460 (setting [2]), 0.03 µM.
Regarding `O=[N+]([O-])c1ccc(C(OP(=O)(N2CC2)N2CC2)C(F)(F)F)cc1Oc1ccc(-c2ccc(F)cc2F)cc1` (stereo not shown) [Compound 14], the values for the IC50 with H460 (setting [1]) and with H460 (setting [2]) were > 1 µM and 0.0114 µM, respectively. Besides, the efflux ratio at 2 h on P-glycoprotein (P-GP) amounted to 1.26.
With `O=[N+]([O-])c1ccc(C(OP(=O)(N2CC2)N2CC2)C(F)(F)F)cc1Oc1ccc(-c2ccc(F)cc2)c(F)c1` (stereo not shown) [Compound 15], the IC50 in the series with H460 (setting [2]) came to 0.00678 µM. The efflux ratio at 2 h on P-glycoprotein (P-GP) turned out to be 1.36.
Take `O=[N+]([O-])c1ccc(C(OP(=O)(N2CC2)N2CC2)C(F)(F)F)cc1Oc1ccc(-c2ccc(F)cc2F)c(F)c1` (stereo not shown) [Compound 16]: the IC50 is > 0.5 µM in the series on H460 (setting [1]) and 0.00726 µM with H460 (setting [2]). Moreover, the efflux ratio at 2 h at P-glycoprotein (P-GP) amounted to 1.96.
Take `O=[N+]([O-])c1ccc(C(OP(=O)(N2CC2)N2CC2)C(F)(F)F)cc1Oc1ccc(-c2ccc(F)cc2)nc1` (stereo not shown) [Compound 17]: the IC50 is > 10 µM in the series with H460 (setting [1]) and 0.0355 µM in the series with H460 (setting [2]).
Regarding `O=[N+]([O-])c1ccc(C(OP(=O)(N2CC2)N2CC2)C(F)(F)F)cc1Oc1ccc(-c2ccc(C(F)(F)F)cc2)nc1` (stereo not shown) [Compound 18], the IC50 in the series with H460 (setting [1]) is > 10 µM; with H460 (setting [2]), 0.313 µM.
With `O=[N+]([O-])c1ccc(C(OP(=O)(N2CC2)N2CC2)C(F)(F)F)cc1Oc1ccc(-c2ccc(F)cn2)cc1` (stereo not shown) [Compound 19], the IC50 is > 10 µM with H460 (setting [1]) and 0.0468 µM in the series on H460 (setting [2]).
In the case of `Cc1ccc(NC(=O)c2ccc(CN3CCN(C)CC3)cc2)cc1Nc1nccc(-c2cccnc2)n1` [Imatinib, reference compound], the efflux ratio at 2 h on P-glycoprotein (P-GP) turned out to be 18.1.
Consider `COc1cc2nc(N3CCN(C(=O)c4ccco4)CC3)nc(N)c2cc1OC` [Prazosin, reference compound], for which the efflux ratio at 2 h on P-glycoprotein (P-GP) stood at 2.87.
